{"source": "patent US10548911B2", "about": "“Small molecule anti-scarring agents” (UNIVERSITY OF ROCHESTER, priority 2014, dated 2020)", "key": {"[1]": {"system": "collagen production of TGFβ induced myofibroblasts", "assay": "Collagen production assay (collagen I slot blot of culture supernatant)", "format": "cell-based, human", "conditions": "72 hours", "protocol": "Cell culture supernatant was collected and transferred (5-20 ul) to PVDF membrane using a slot blot device. The membrane was blocked and probed with a goat anti-collagen antibody (1:5000), washed and incubated with a donkey anti-goat antibody conjugated to HRP. Band intensities were quantified using ImageLab software and values were normalized to vehicle treatments.\nTED fibroblasts were treated with TGFβ (1 ng/ml) in the presence or absence of 10-250 nM salinomycin for 72 hours to allow formation of myofibroblasts. After 72 hours, cells were harvested and analyzed by Western blot. As expected, the fibroblasts robustly responded to TGFβ, expressing high levels of αSMA and calponin (FIG. 2A). […] At 50 nM salinomycin, expression of αSMA was reduced by 4-fold over TGFβ treatment alone. Furthermore, at 250 nM salinomycin, αSMA expression was reduced by approximately 16-fold, to levels at or below untreated fibroblasts. […] Another key role of myofibroblasts in scar formation is the production of collagen. Whether salinomycin could block myofibroblast collagen production was assessed. Cells were treated with TGFβ and salinomycin as above and after 72 hours, culture medium was collected and analyzed for collagen levels using a specific collagen I antibody and slot blot analysis."}, "[2]": {"system": "TGFβ-induced SBE-luciferase activity", "assay": "Secondary dual luciferase screen (SBE-luciferase normalized to constitutive Renilla luciferase)", "format": "cell-based, human", "conditions": "for inhibition of luciferase expression, dose responsiveness: secondary dual luciferase screen, several doses (low micromolar)", "protocol": "FIG. 1A is a diagram of Smad-dependent reporter construct. Four tandem Smad binding elements (SBE) were inserted upstream of the minimal Thymidine Kinase (TK) promoter. Downstream of the promoter is a destabilized version of the firefly luciferase gene (luc2P) present in the pLuc2P-Hygro plasmid which also harbors the hygromycin resistance gene. The plasmid was introduced into HEK293FT cell line and individual colonies were selected with hygromycin (200 ug/ml) to develop a Smad/TGFβ dependent-luciferase reporter cell line. FIG. 1B is a graph illustrating the response of the reporter cell line to 1 ng/ml treatment of TGFβ for 20 hours, which results in an approximately 20-fold increase of luciferase activity.\nThey are: Benzbromarone (“BZB”), Bithionate sodium (“BTS”), Piplartine (piperlongumine) (“PPT”), Amsacrine (“ASC”), and Alexidine (“AXD”). A secondary luciferase screening assay was performed to determine specificity and dose responsiveness of these compounds in comparison to salinomycin (“SNC”). The secondary screen utilizes dual luciferase technology that includes the above mentioned SBE-luciferase in addition to a Renilla luciferase that is under control of the constitutive SV40 promoter. Therefore the SBE-luciferase activity can be normalized to the Renilla luciferase activity to control for toxicity and non-specific effects. The secondary screen can thus be used to remove small molecules that display overt toxicity and/or non-specific effects on the primary assay."}, "phospho-Smad2": {"system": "phospho-Smad2", "assay": "Western blot of phospho-Smad2/3 in TGFβ-treated human orbital fibroblasts", "format": "cell-based", "protocol": "To further characterize the molecular mechanisms whereby salinomycin (and other polyether antibiotics) blocks TGFβ induced myofibroblast formation, activation kinetics were analyzed for some of the key mediators of TGFβ signaling (Weiss et al., “The TGFbeta superfamily signaling pathway,” Wiley Interdiscip. Rev. Dev. Biol. 2:47-63 (2013), which is hereby incorporated by reference in its entirety). Since salinomycin was first identified as a putative anti-scarring molecule by its ability to block TGFβ-induced Smad activity, the levels of phospho-Smad2 were analyzed by Western blot in cells treated with TGFβ or TGFβ plus salinomycin. […] The experiment was repeated, with samples being incubated for extended periods of time including 5, 24, 48 and 72 h hours (FIG. 5A, top panel)."}, "[3]": {"system": "TGFβ induced Smad-luc activity", "assay": "Smad-luc reporter in human orbital fibroblasts electroporated with control or MKK6(glu) plasmid", "format": "cell-based", "conditions": "250 nM, 24 hours", "protocol": "Plasmid DNA was introduced into human fibroblasts by electroporation. Plasmids were electroporated with an Amaxa nucleofector (program U-025) into 1×10^6 cells. The pcDNA3-flag MKK6(glu) plasmid was obtained from Addgene (plasmid 13518, from Roger Davis' lab). After transfection cells were cultured for 12-24 hours and culture medium was subsequently changed to treatment conditions.\nTo further test if salinomycin targets the p38 pathway to block myofibroblast formation, a plasmid encoding a mutant MKK6 (pcDNA3-flag MKK6(glu)) protein was used. MKK6 phosphorylates and thus activates p38 in response to extracellular signals such as TGFβ or other environmental stresses. The MKK6(glu) protein, which harbors glutamate mutations at amino acid residues serine 207 and threonine 211, is constitutively active and thus phosphorylates p38 irrespective of signal (Raingeaud et al., “MKK3- and MKK6-regulated gene expression is mediated by the p38 mitogen-activated protein kinase signal transduction pathway,” Mol. Cell. Biol. 16:1247-1255 (1996), which is hereby incorporated by reference in its entirety). Thus, if salinomycin is blocking the p38 signaling pathway, MKK6(glu) should overcome the effect of salinomycin. MKK6(glu) was first tested using the SBE4-TK-luc reporter plasmid. The luciferase reporter plasmid was introduced into human fibroblasts along with the MKK6(glu) plasmid or a control plasmid (pcDNA3-GFP). Cells were then treated with vehicle, TGFβ or TGFβ plus 250 nM salinomycin. After 24 hours, luciferase activity was measured (FIG. 6A). […] MKK6(glu) was further tested to assess whether it could attenuate the ability of salinomycin to inhibit p38 phosphorylation. Control or MKK6(glu) plasmids were introduced into human fibroblasts by electroporation and then cells were treated with TGFβ for 24 hours. Following treatment, cells were analyzed for flag-MKK6(glu) expression and phospho-p38 by Western blot (FIG. 6B). […] Samples were analyzed for expression of flag-MKK6(glu), αSMA, calponin and β-tubulin by Western blot (FIG. 6C)."}, "p38": {"system": "p38", "conditions": "human ovarian cancer, 2-7 uM; cited from earlier work"}}, "note": "Entries after “also recorded” stand apart in the source; their conditions may differ."}
{"smiles": "CC[C@@H](C(=O)[C@@H](C)[C@@H](O)[C@H](C)[C@@H]1O[C@@H]([C@@H](CC)C(=O)O)CC[C@@H]1C)[C@H]1O[C@]2(C=C[C@@H](O)[C@]3(CC[C@@](C)([C@H]4CC[C@](O)(CC)[C@H](C)O4)O3)O2)[C@H](C)C[C@@H]1C", "note": "[salinomycin]", "values": [{"measurement": "collagen production", "setting": "[1]; 10 nM", "value": "decreases"}, {"measurement": "collagen production", "setting": "[1]; 100 nM", "value": "at baseline levels"}, {"measurement": "collagen production", "setting": "[1]; 250 nM", "value": "below baseline levels"}, {"measurement": "collagen I levels, dose dependence", "setting": "[1]; 10-250 nM", "value": "dose-dependent manner"}, {"measurement": "TGFβ-induced SBE-luciferase activity level", "setting": "[2]; 1 uM", "value": "below baseline levels"}, {"measurement": "inhibition of luciferase expression, dose responsiveness", "setting": "[2]", "value": "dose dependent decrease; also recorded: dose responsive decrease"}, {"measurement": "inhibition of luciferase expression, dose responsiveness", "setting": "[2]; listed as SNC", "value": "substantially inhibited luciferase expression"}, {"measurement": "reduction of TGFβ induced phospho-Smad2/3 levels", "setting": "phospho-Smad2; 250 nM, 5 hours", "value": 2, "unit": "fold"}, {"measurement": "reduction of phospho-Smad2 levels compared to TGFβ alone", "setting": "phospho-Smad2; 250 nM, 5 hours", "value": 80, "unit": "%"}, {"measurement": "reduction of TGFβ induced phospho-Smad2/3 levels", "setting": "phospho-Smad2; 250 nM, 24 hours", "value": "8-10 fold"}, {"measurement": "reduction of TGFβ induced phospho-Smad2/3 levels", "setting": "phospho-Smad2; 250 nM, 24 hours, listed as Salinomycin", "value": 5, "unit": "fold"}, {"measurement": "phospho-Smad2 levels", "setting": "phospho-Smad2; early time points (30 sec-1 hour), TGFβ", "value": "did not affect phospho-Smad2 levels"}, {"measurement": "TGFβ-induced Smad-luc (luciferase) activity", "setting": "[3]; constitutively active MKK6(glu) plasmid", "value": "attenuated the effect of salinomycin; also recorded: unable to block TGFβ-induced luciferase activity"}, {"measurement": "TGFβ-induced Smad-luc (luciferase) activity", "setting": "[3]; control (GFP) plasmid", "value": "completely blocked TGFβ-induced luciferase activity"}, {"measurement": "TGFβ-induced Smad-luc (luciferase) activity", "setting": "[3]; control (GFP) plasmid, listed as Salinomycin", "value": "blocked TGFβ induced Smad-luc activity"}, {"measurement": "p38 activity", "setting": "p38", "value": "activated"}]}
